From patent US20190083495A1, “Methods Of Preventing Or Reducing A Fibrotic Response Using CSF1R Inhibitors” (Massachusetts Institute of Technology, priority 2016, published 2019)
“Also recorded” adds a separate entry of the source.

Tests used:
[1] = test system: reactive oxygen specie (ROS); assay: ROS activity assessment of protein lysates from retrieved alginate spheres; format: in vivo, C57BL/6 mice; conditions: lysates from alginate spheres 14 days after IP implantation, two ROS substrates, vs untreated and vehicle
[2] = test system: Peritoneal exudate macrophages; assay: Phagocytosis assay with fluorospheres; format: cell-based, C57BL/6 mice; conditions: macrophages from treated mice, 90 minutes with fluorospheres, vs vehicle
Text: (§1) For in vivo wound healing: C57BL/6 mice were anesthetized (same as above) and shaved, and skin incisions 1.5 cm in length were made along the midline. Each incision was then wound clipped shut for both vehicle and daily GW2580-treated C57BL/6 mice. Wound clips were removed and then replaced each imaging day up until day 7 (required to maintain them up until at least this time), after which clips were left off completely. Photos were acquired on days 0, 1, 4, 7, 10, and 14 post-incision. After 14 days, mice were sacrificed, and skin samples were prepared for histological assessment (H&E and Masson's Trichrome) of both vehicle and GW2580 treatment groups. Cross-sections through the incision line were generated to assess the level of in vivo healing following a 14-day treatment regimen. For IP innate immune cell counts, FACS, and phagocytosis assays: cells were isolated by peritoneal lavage with 8 mL DPBS, diluted into RPMI, and then subsequently counted, and aliquoted either for staining and FACS analysis (as described above), or for phagocytosis assays. […] Following appropriate incubation times, samples were read in a black-wall 96-well plate with a Tecan fluorescent-capable Infinite M1000 plate reader.

C57BL/6 mice [3] = assay: Fibrosis of implanted material spheres retrieved after 14-day intraperitoneal implantation (phase contrast / brightfield imaging); format: in vivo
Text: All protocols were approved by the MIT Committee on Animal Care, and all surgical procedures and post-operative care were supervised by MIT Division of Comparative Medicine veterinary staff. All mice, wild type male immune-competent (non-diabetic), STZ-induced diabetic, as well as knockout C57BL/6 mice, were ordered pathogen-free from Jackson Laboratory (Bar Harbor, Me.) or Taconic (Hudson, N.Y.). The status of all mice was subsequently verified by testing sentinel animals, shown to be negative for at least 12 known mouse pathogens. Implanted mice were anesthetized with 3% isoflurane in oxygen and had their abdomens shaved and sterilized using betadine and isopropanol. C57BL/6-Nude (T KO, B6NU), C57BL/6-Rag2^null (T & B KO, RAGN12), C57BL/6-Rag2^null/Il2rγ^null (Rag2/γ, 4111) were ordered from Taconic (Hudson, N.Y.), and C57BL/6-IghM^null (BKO, 002288), (C57BL/6) B6.12956-Ccr6tm1(EGFP)Irw/J. (Ccr6, 013061), and C57BL/6-C3 KO (C3 KO, 003641) mice were ordered from Jackson Laboratory, Bar Harbor, Me.). Preoperatively, all mice received 0.05 mg/kg buprenorphine and 0.2 mL of 0.9% saline subcutaneously for pre-surgery analgesia and dehydration prevention. A midline (abdomen) incision (0.5 mm) was made and the peritoneal lining was exposed using blunt dissection. The peritoneal wall was then grasped with forceps and a 0.5-1 mm incision was made along the linea alba. A desired volume of spheres (all materials) were then loaded into a sterile pipette and implanted into the peritoneal cavity. The incision was then closed using 5-0 taper-tipped polydioxanone (PDS II) absorbable sutures, and the skin was closed using a wound clip and VetBond tissue glue. For subcutaneous implantation, ˜200-300 μL of 500 μm SLG20 spheres were injected s.c. following anesthesia with isofluorane. […]

VEGF = VEGF Luminex protein quantification of protein lysates; format: in vivo, C57BL/6 mice; conditions: lysates of alginate spheres and tissue retrieved at 14 days
Description: (§2) For targeted macrophage depletions, clodrosome (200 μL/mouse) (Encapsula Nano Sciences, Nashville, Tenn.) were injected intraperitoneally starting at −3 days (prior to implantation, day 0), and for every 7 days thereafter (so days −3, 4, and 11). To achieve neutrophil depletion, affinity purified anti-Ly6g (Clone 1A8) antibody (250 ug/mouse) (BioLegend, San Diego, Calif.) was administered also starting at day −3, and every 3 days thereafter (except the day of implantation). For the combination therapy, in order to avoid drug-antibody interactions, each agent was administered 4 hours apart from one another. […]
Cytokine array analysis was performed using the Luminex Bio-Rad Bio-Plex Pro mouse cytokine panel based on Luminex beads (multiplexing both the 23 and 8-cytokine arrays) (Bio-Rad, Hercules, Calif.), according to manufacturer's instructions. 1:4 diluted mouse sera samples were analyzed for the time course, and protein lysates taken from fibrosed tissue and alginate microspheres, loaded at a concentration of 500 μg/mL (200 uL per sample), were run to compare cytokine responses across mock (saline) treated versus wildtype, knockout or serially perturbed/depleted C57BL/6 mice implanted with 500 μm SLG20 alginate spheres. […] The plate was then read on a BioPlex-200 plate reader, with absolute concentrations obtained through fitting a standard curve. […]

CXCL10 = CXCL10 ELISA of protein lysates from retrieved alginate spheres and tissue; format: in vivo, C57BL/6 mice; conditions: lysates of alginate spheres and tissue retrieved at 14 days
C57BL/6 mice [4] = assay: In vivo wound healing of skin incisions
Text: as §1, with “assays. Peritoneal exudate macrophages isolated by IP lavage from (n=5) mice in each treatment group were immediately plated (400,000 cells/well in a 24-well plate) and incubated with fluorospheres for 90 minutes to determine phagocytic activity. 1 μm orange fluorospheres (540/560) (Cat# F13082, Invitrogen, Carlsbad, Calif.) were added to each well in a volume of 500 μL from an initial dilution of 20 μL into 10 mL. After addition, plates were spun down at 1,000 rpm for 1 min, and then placed in an incubator for 90 minutes to allow IP macrophages time to phagocytose the 1 μm diameter fluorospheres. Following the 90-minute incubation, all wells were fixed with 4% paraformaldehyde and stored at 4 C prior to imaging using a fluorescent and brightfield-capable EVOS microscope (Advanced Microscopy Group).” for “assays.”

C57BL/6 mice [5] = assay: NanoString expression analysis of mouse cytokines and cytokine receptors; format: in vivo
Description: as §2, with “another. To neutralize secreted CXCL13, anti-CXCL13 antibody (mAB470, R&D Systems) was injected i.p. in sterile 1×PBS at a dose of 100 μg/mouse, once every 3 days, starting 3 days prior to implantation as well.” for “another.”
RNAs for mock-implanted (saline) treated controls, or for 500 μm alginate sphere-bearing C57BL/6 mouse strains (n=4/group), including wild type, knockouts, and serially immune depleted wild type mice, were isolated from tissue samples taken at various time points after implantation, as described. […] In general, respective RNAs were quantified, normalized to the appropriate loading concentration (100 ng/μl), and then 500 ng of each sample was processed according to NanoString manufacturer protocols for expression analysis via our customized multiplexed total (known) mouse cytokine and cytokine receptor expression panel, used for both immune strain comparisons with alginate, and material class comparisons just the wild type C57BL/6 strain. […] RNA levels (absolute copy numbers) were obtained following nCounter (NanoString Technologies Inc., Seattle, Wash.) quantification, and group samples were analyzed using nSolver analysis software (NanoString Technologies Inc., Seattle, Wash.).

C57BL/6 mice [6] = assay: Peritoneal lavage IP immune cell counts and FACS macrophage phenotype; format: in vivo
Description: Single-cell suspensions of freshly excised tissues were prepared using a gentleMACS Dissociator (Miltenyi Biotec, Auburn, Calif.) according to the manufacturer's protocol. Single-cell suspensions were prepared in a passive PEB dissociation buffer (1×PBS, pH 7.2, 0.5% BSA, and 2 mM EDTA) and suspensions were passed through 70 μm filters (Cat. #22363548, Fisher Scientific, Pittsburgh, Pa.). […] All tissue and material sample-derived, single-cell populations were then subjected to red blood cell lysis with 5 ml of 1×RBC lysis buffer (Cat. #00-4333, eBioscience, San Diego, Calif., USA) for 5 min at 4° C. The reaction was terminated by the addition of 20 ml of sterile 1×PBS. The cells remaining were centrifuged at 300-400g at 4° C. and resuspended in a minimal volume (˜50 μl) of eBioscience Staining Buffer (cat. #00-4222) for antibody incubation. […] For alpha smooth muscle actin (fibrosis) analysis, additional cell aliquots were also fixed in 1% paraformaldehyde and permeabilized with 0.1% triton X-100 before being stained with Cy3-conjugated anti-mouse αSM actin antibody (1:100) (Sigma Aldrich, St. Louis, Mo.). […]

C57BL/6 mice [7] = assay: FACS analysis of immune cells dissociated from retrieved spheres, tissue and spleen; format: in vivo
Description: For targeted macrophage depletions, clodrosome (200 μL/mouse) (Encapsula Nano Sciences, Nashville, Tenn.) were injected intraperitoneally starting at −3 days (prior to implantation, day 0), and for every 7 days thereafter (so days −3, 4, and 11). To achieve neutrophil depletion, affinity purified anti-Ly6g (Clone 1A8) antibody (250 ug/mouse) (BioLegend, San Diego, Calif.) was administered also starting at day −3, and every 3 days thereafter (except the day of implantation). For the combination therapy, in order to avoid drug-antibody interactions, each agent was administered 4 hours apart from one another. To neutralize secreted CXCL13, anti-CXCL13 antibody (mAB470, R&D Systems) was injected i.p. in sterile 1×PBS at a dose of 100 μg/mouse, once every 3 days, starting 3 days prior to implantation as well. For selective macrophage inhibition and polarization, the CSF1R-targeted inhibitor GW2580 (LC Labs, Woburn, Mass.), was dissolved in a 1:1 DMSO/PEG400 solution, and injected daily (starting 1 day prior to implantation) at a dose of 160 mg/kg BW subcutaneously (s.c.), to eliminate concerns of vehicle directly perturbing responding immune cells as well as a recovering implant site.
Single-cell suspensions of freshly excised tissues were prepared using a gentleMACS Dissociator (Miltenyi Biotec, Auburn, Calif.) according to the manufacturer's protocol. […]

[8] = RNA extracts 14 days post-implant, alginate

COc1ccc(COc2ccc(Cc3cnc(N)nc3N)cc2OC)cc1 [GW2580]
ROS activity [1]: no differences
phagocytic activity [2]: no significant differences
fibrosis on 500 μm alginate spheres (C57BL/6 mice [3]; SLG20 alginate 500 μm spheres, 14 day implant, vs wild type/vehicle control): prevented the fibrotic response; also recorded: completely eliminated; also recorded: prevents fibrosis
fibrosis on 500 μm glass ceramic spheres (C57BL/6 mice [3]; glass spheres, 14 days, vs saline vehicle): prevented the fibrotic response; also recorded: prevents fibrosis
fibrosis on 500 μm polystyrene polymer spheres (C57BL/6 mice [3]; polystyrene spheres, 14 days, vs saline vehicle): prevented the fibrotic response; also recorded: prevents fibrosis
VEGF protein production (VEGF): spared to normal levels
CXCL10 protein level (CXCL10): increased reduction of CXCL10 back to wildtype levels
incision site closure at day 7 (C57BL/6 mice [4]; 1.5 cm skin incision, daily treatment, day 7, skin stretched apart): shut and not pulling apart
scarring at day 14 (C57BL/6 mice [4]; 1.5 cm skin incision, daily treatment, day 14): very little scarring
wound resolution and healing potential by width and depth measurements (histology) (C57BL/6 mice [4]; day 14 post-incision, vs vehicle): no significant (ns) differences
expression of macrophage-associated (downstream) factors (FIG. 13F) (C57BL/6 mice [5]; [8]): inhibited
expression of macrophage-specific factors (FIG. 13D) (C57BL/6 mice [5]; [8]): inhibited
expression of non-immune-associated upstream inflammation-associated gene family (FIG. 18B) (C57BL/6 mice [5]; alginate-implanted mice, 14 days): decreased back to mock implanted (saline) control levels
IP macrophage phenotype (CD68 & CD11b staining) (C57BL/6 mice [6]; peritoneal lavage after 4 and 14 days of daily treatment, vs vehicle): shifted (decreased CD68 & CD11b intensities)
overall cell numbers in the peritoneal exudate (C57BL/6 mice [6]; vs untreated and vehicle-treated): unchanged
macrophage, neutrophil and B cell presence on spheres (normalized to cell counts from 100 μl material) (C57BL/6 mice [7]; alginate spheres, 14 days post-i.p. implant): complete loss
inhibition of host immune attack to alginate, glass and polystyrene spheres (C57BL/6 mice [7]; compared with clodrosome-based macrophage depletion, 14 days i.p.): as effective as clodrosome-based macrophage depletion
